A short description of data set [1]: Thermogravimetric analysis (TG) in the air. It is filed as physicochemical. To be noted: for Decomp. Start.: Table 1.
The nature of data set [2]: Electron-emitting characteristics of device measured with measurement evaluation apparatus. To be noted: Table 1. An excerpt: FIG. 4 is a schematic block diagram of an arrangement comprising a vacuum chamber that can be used as a measuring system for determining the performance of an electron-emitting device of the type under consideration.
Referring to FIG. 4, those components that are similar to or same as those of FIGS. 1A and 1B are denoted by the same reference symbols. The measuring system includes a vacuum chamber 45 and a vacuum pump 46. An electron-emitting device is placed in the vacuum chamber 45. The device comprises a substrate 1, a pair of device electrodes 2 and 3, an electroconductive thin film 4 and an electron-emitting region 5. Otherwise, the measuring system has a power source 41 for applying a device voltage Vf to the device, an ammeter 40 for metering the device current If running through the thin film 4 between the device electrodes 2 and 3, an anode 44 for capturing the emission current Ie produced by electrons emitted from the electron-emitting region of the device, a high voltage source 43 for applying a voltage to the anode 44 of the measuring system and another ammeter 42 for metering the emission current Ie produced by electrons emitted from the electron-emitting region 5 of the device. For determining the performance of the electron-emitting device, a voltage between 1 and 10 KV may be applied to the anode, which is spaced apart from the electron emitting device by distance H which is between 2 and 8 mm.
The electron-emitting characteristics of the electron-emitting device formed as described above were evaluated by using the measurement evaluation apparatus in FIG. 4. Note that, in this example, the distance between an anode and the electron-emitting device was set to be 4 mm, and the potential of the anode was set to be 1 kV. The degree of vacuum in the vacuum apparatus in measurement of the electron-emitting characteristics was 10^-8 torr.
The measurement evaluation apparatus described above was used, and a device voltage was applied across the electrodes 2 and 3 of the electron-emittingdevice. When a device current If and an emission current Ie flowing at this time were measured, current-voltage characteristics shown in FIG. 5 were obtained. In this device, the emission current Ie began to increase from a device voltage of about 6.3 V, and the device current If became 1.9 mA at the device voltage of 14 V. At this time, the emission current Ie of 0.7 μA was obtained.
The electron-emitting characteristics of the device manufactured as described above were measured. FIG. 4 is a schematic view showing the arrangement of a measurement evaluation apparatus. Reference numerals in FIG. 4 follow the reference numerals in the above examples. Note that, in this example, the distance between an anode and the electron-emitting device was set to be 4 mm, the potential of the anode was set to be 1 KV, and the degree of vacuum in a vacuum apparatus in measurement of the electron-emitting characteristics was set to be 10^-6 torr.
The measurement evaluation apparatus described above was used, and a device voltage was applied across the electrodes 2 and 3 of the electron-emittingdevice. When a device current If and an emission current Ie flowing at this time were measured, current-voltage characteristics shown in FIG. 5 were obtained. In the device in this example, the emission current Ie begun to sharply increase from a device voltage of about 8 V, the device current If and the emission current Ie respectively became 2.3 mA and 1.2 μA at the device voltage of 16 V, and electron-emitting efficiency .eta.=Ie/If (%) was 0.05%.
Note that, in this example, the distance between an anode and the electron-emitting device was set to be 4 mm, the potential of the anode was set to be 1 KV, and the degree of vacuum in a vacuum apparatus in measurement of the electron-emitting characteristics was set to be 10^-7 torr. […]

For data set [3] the following is noted: water.
The conditions of data set [4]: X-ray diffraction.
For data set [5] the following is noted: scanning type differential thermal analysis in the air.

Results on 17 compounds are retold here after patent US6270389A, “Method for forming an electron-emitting device using a metal-containing composition” (priority 1995, dated 2001).

Take `CC(=O)[O-].CC(=O)[O-].CC(C)NCCO.CC(C)NCCO.[Pd+2]` [Ex. 25]: in data set [1], the “Decomp. Start.” value amounted to 155 °C. Further, in data set [2], the Ie was found to be 1.1 mA, the Ie/If is 0.039% and the If was found to be 2.8 mA. The Solubility in data set [3] came out at 3.7 Pdwt %.

Regarding “nickel acetate-bis(N-butylethanolamine) [NABE]”, the “temperature at which decomposition ended” value in data set [1] (TG in the air) turned out to be 395 °C.

For the compound `CC(=O)[O-].CC(=O)[O-].NCCCO.NCCCO.[Ni+2]` [NAMP, nickel acetate-bis(3-amino-propanol)], the “temperature at which decomposition ended” value in data set [1] (TG in the air) came to 393 °C.

As to `CC(=O)[O-].CC(=O)[O-].CC(C)(C)NCCO.CC(C)(C)NCCO.[Pd+2]` [Ex. 26], the “Decomp. Start.” value in data set [1] was 166 °C. In data set [2], the Ie came to 1.0 mA, the Ie/If is on record as 0.040% and the If is 2.5 mA. The compound also showed a Solubility in data set [3] of 0.7 Pdwt %.

For `CC(=O)[O-].CC(=O)[O-].CNCCO.CNCCO.[Pd+2]` [Ex. 22], the “Decomp. Start.” value in data set [1] came to 155 °C. In data set [2], this compound gave an Ie of 1.3 mA, an Ie/If of 0.045% and an If of 2.9 mA. The compound also returned a Solubility in data set [3] of 16.0 Pdwt %.

Turning to `CC(=O)[O-].CC(=O)[O-].CC(O)CN.CC(O)CN.[Ni+2]` (centres unmarked) [NAMiP, nickel acetate-bis(1-amino-2-propanol)], the “temperature at which decomposition ended” value in data set [1] (TG in the air) was 406 °C.

As for `CC(=O)[O-].CC(=O)[O-].NCCO.NCCO.NCCO.NCCO.[Pd+2]` [PA-ME, palladium acetate-monoethanolamine complex], in data set [1] (TG in the air), the decomposition start temperature was found to be 100 °C, the sublimation properties result is listed as “no sublimation properties” and the “temperature at which decomposition ended” value amounted to 310 °C. In data set [1] (TG in the air, 350° C.), the “residue weight at 350° C., in words” value is listed as “equal to a theoretical weight”. For the same compound, the “crystallinity of dried thin film” value in data set [4] was “non-crystallized”. This compound yielded a decomposition temperature in data set [5] of 272 °C.

As for `NCCO.NCCO.NCCO.O.O.O=C[O-].O=C[O-].[Ni+2]` [NFME, nickel formate-tris(ethanolamine)-2-hydrate], the “temperature at which decomposition ended” value in data set [1] (TG in the air) is 403 °C.

For `CC(=O)[O-].CC(=O)[O-].CCCNCCO.CCCNCCO.[Pd+2]` [Ex. 24], in data set [1], the “Decomp. Start.” value is 154 °C. For the same compound, in data set [2], the Ie is listed as 1.0 mA, the Ie/If is 0.038% and the If is 2.6 mA. Further, the Solubility in data set [3] came to 4.0 Pdwt %.

In the case of `CC(=O)[O-].CC(=O)[O-].CCNCCO.CCNCCO.[Pd+2]` [Ex. 23], the “Decomp. Start.” value in data set [1] was 153 °C. In data set [2], this compound gave an Ie of 1.1 mA, an Ie/If of 0.042% and an If of 2.6 mA. In data set [3], the Solubility was 8.4 Pdwt %.

For the compound `CC(=O)[O-].CC(=O)[O-].CNCCO.CNCCO.[Ni+2]` [NANME, nickel acetate-bis(N-methylethanolamine)], in data set [1] (TG in the air), the “temperature at which decomposition ended” value is 379 °C.

On to `CC(=O)[O-].CC(=O)[O-].NCCCCO.NCCCCO.NCCCCO.NCCCCO.[Pd+2]` [Ex. 20], for which the “Decomp. Start.” value in data set [1] is 186 °C. In addition, in data set [2], the Ie/If is on record as 0.052% and the If is reported as 2.3 mA. This compound also came in with a Solubility in data set [3] of 10.5 Pdwt %.

On to “palladium acetate-diethanolamine complex [PA-DE]”, for which, in data set [1] (TG in the air), the decomposition start temperature came to 100 °C, the sublimation properties entry is on record as “no sublimation properties” and the “temperature at which decomposition ended” value is 305 °C.

As to “palladium acetate-di(N-butylethanolamine) [PABE]”, the “temperature at which decomposition ended” value in data set [1] (TG in the air) was 245 °C.

On to “palladium acetate bis(dipropylamine) [reference compound]”, for which, in data set [1] (TG in the atmosphere), the “palladium lost in thermal decomposition” value is recorded as 29%, the “weight reduction end temperature” value was found to be 250 °C and the “weight reduction start temperature” value stood at 122 °C. Further, the “residue weight at 350° C. relative to theoretical weight” value in data set [1] (TG in the atmosphere, 350° C.) is on record as 71%.

“palladium acetate-bis(N,N-dibutylethanolamine) [PADBE]”: the “temperature at which decomposition ended” value in data set [1] (TG in the air) worked out at 253 °C.

`CC(=O)[O-].CC(=O)[O-].NCCCO.NCCCO.NCCCO.NCCCO.[Pd+2]` [Ex. 19]: in data set [1], the “Decomp. Start.” value stood at 173 °C. In data set [2], this compound gave an Ie of 1.1 mA, an Ie/If of 0.041% and an If of 2.7 mA.
